Experimental data taken from patent publication US20040096851A1, “ABCA1 PEST domain-related compositions and methods” (priority 2002, published 2004).

Legend:
ABCA1 protein [1] = assay: ABCA1 protein level in mouse peritoneal macrophages (Western); type: cell-based; details: for ABCA1 protein level, effect in words: mouse peritoneal macrophages, 3 hours, apoA-I 10 μg/ml, HDL2 50 μg protein/ml, MβCD 1 mM 5 min, apigenin 40 μM
Description: Cellular lipid efflux assays, apoA-I cell association, and chemical cross-linking: The assays were carried out as in (14). Generally, 293 cells were labeled by culturing overnight in media containing either [^3H]cholesterol, for cholesterol efflux, or [^3H]choline, for phospholipid efflux. The next day, cells were washed with fresh media before or after treatment as indicated, and then apoA-I was added as acceptor and incubated for the indicated period before the media and cells were collected for analysis. Mouse peritoneal macrophage cells were isolated from male mice by peritoneal lavage with PBS 3 days after intraperitoneal injection with 1 ml of 3.85% thioglycollate. The cells were labeled with […] [^3H]cholesterol overnight in DMEM and 0.2% BSA supplemented with 50 μg/ml acetylated LDL plus LXR/RXR ligands 22(R)-hydroxycholesterol and 9-cis retinoic acid (both 10 μM). After labeling, cells were washed and efflux was carried out with 10 μg/ml apoA-I for 3 hours. Then, cells and medium were collected for analysis. Cholesterol efflux was expressed as the percentage of the radioactivity released from the cells into the medium, relative to the total radioactivity in cells plus medium. For apoA-I cell association, cells were incubated with 0.2 μg/ml [^125 I]apoA-I in 0.2% BSA and DMEM for 1 hour at 37° C. After being washed three times with fresh media, cells were lysed with 0.1% SDS and 0.1N NaOH lysis buffer, and radioactivity was determined by a gamma counter.
(§1) Immunoprecipitation and immunoblot analysis of ABCA1: For immunoblot analysis of ABCA1, ABCA1-FLAG, and ABCA1delPEST-FLAG, transfected HEK293 cells, peritoneal macrophages, or primary hepatocytes were washed and scraped in PBS and lysed in RIPA buffer (10 mM Tris-HCl [pH 7.3], 1 mM MgCl2, 1.0% Nonidet P-40, 0.5% sodium deoxycholate, and 5 mM EDTA in the presence of protease inhibitors as follows: 0.5 μg/ml leupeptin, 1 μg/ml aprotinin, and 1 μg/ml pepstatin A) (Roche Molecular Biochemicals, Indianapolis, Ind., USA). Postnuclear supernatants containing the indicated amounts of protein were subjected to Western analysis using an anti-ABCA1 antiserum or anti-FLAG M2 antibody and chemiluminescence detection. The relative intensities of the bands were determined by densitometry. For cell surface ABCA1 analysis, cells were first biotinylated with 0.5 mg/ml EZ-Link Sulfo-NHS-SS-Biotin (Pierce Chemical Co., Rockford, Ill., USA) at 4° C. for 30 minutes. Then cells were lysed with RIPA buffer at 4° C. After centrifugation, the supernatant of cell lysates was incubated with anti-FLAG agarose beads overnight at 4° C. Following centrifugation and washing, the collected agarose beads were subjected to SDS-PAGE sample buffer with 100 mM 2-mercaptoethanol. The total or […] ABCA1 was detected by Western blot using either anti-FLAG antibody or streptavidin-horseradish peroxidase.

ABCA1 phosphorylation = assay: Phosphorylation of ABCA1 in cells; type: cell-based
ABCA1 protein [2] = assay: ABCA1 protein turnover and level in transiently transfected 293 cells (metabolic labeling, Western, cell surface biotinylation); type: cell-based, human
From the text: Plasmid constructs and cell transfection: ABCA1-FLAG was constructed as described (18). ABCA1delPEST was based on ABCA1-FLAG. Using PCR, ABCA1delPEST was constructed by deleting a nucleotide sequence that encodes mouse ABCA1 amino acids 1283-1306 and was confirmed by sequencing. HEK293 cells, in 12- or 24-well collagen-coated plates, were transiently transfected with various plasmid constructs at indicated DNA concentrations with Lipofectamine 2000 (Invitrogen Corp., San Diego, Calif., USA) at 37° C. overnight (20 hours). A construct expressing green fluorescence protein (GFP) was routinely used to visually monitor transfection efficiency (i.e., the percentage of cells expressing GFP). The transfection efficiency of 293 cells was in the range of 50-80% of cells. […] In addition to performing multiple replicates within each experiment, all experiments were repeated on multiple separate occasions to confirm reproducibility of results.
as §1

ABCA1 protein [3] = assay: ABCA1 protein level in primary mouse hepatocytes (Western); type: cell-based; details: apoA-I 10 μg/ml 3 hours
Description: as §1, with “peroxidase. […]” for “peroxidase.”

ABCA1 protein [4] = assay: ABCA1 protein level in mouse peritoneal macrophages (Western); type: cell-based; details: cultured cells, short-term incubations, data not shown
ABCA1 [5] = details: macrophages loaded with acetyl-LDL and cholesterol ester; cited from earlier work
calpain protease = assay: Degradation of a fluorescent calpain protease substrate in cells; type: cell-based; details: data not shown
ABCA1 [6] = target: T1, ABCA1 (Mus musculus, UniProt P41233); assay: Apolipoprotein A-I infusion in mice, ABCA1 in liver and peritoneal macrophages; type: in vivo; design: from tissue; host or cells: mouse liver and peritoneal macrophages
Description: […] Mice were anesthetized intraperitoneally with 0.1 ml/30 g body weight of a solution containing 100 mg/ml ketamine and 30 mg/ml xylazine. ApoA-I (20 mg/kg body weight) or BSA as control was administered via femoral vein as a bolus injection. Four hours after injection, animals were euthanized and the liver was dissected out for analysis.

ABCA1 [7] = target: T1, ABCA1; assay: Calpain-catalyzed proteolysis of metabolically labeled ABCA1 in digitonin-permeabilized 293 cells; type: cell-based; design: expressed in transfected cells; host or cells: 293 cells, digitonin-permeabilized
Description: (§2) Calpain-catalyzed proteolysis of metabolically labeled ABCA1: Transiently transfected 293 cells were pulse-labeled by [^35S]methionine (0.5 mCi/ml) in 0.2% BSA and DMEM for 2 hours. Cells were washed three times with fresh media and placed on ice for 10 minutes. Then cells were permeabilized by addition of 80 μg/ml digitonin in DMEM and incubated on ice for 15 minutes. Next, the cells were washed twice with fresh DMEM, and then purified μ-calpain in DMEM plus 2 mM CaCl2 was added at the indicated concentration and incubated for 20 minutes at room temperature. Then cells were lysed by addition of 1 ml RIPA buffer with 40 μg/ml calpeptin. FLAG-tagged ABCA1 was immunoprecipitated by anti-FLAG agarose beads and subjected to quantitative analysis by PhosphorImager.

ABCA1 [8] = target: T2, ABCA1 (Mus musculus, UniProt P41233, DEL1283-1306); assay: as above; type: cell-based; details: permeabilized 293 cells, purified μ-calpain
T2 construct: expressed in transfected cells; host or cells: 293 cells, digitonin-permeabilized
Description: as §2

[9] = 293 cells, lactacystin 20 μM for 3 h
[10] = 293 cells, apoA-I 10 μg/ml 3 hours
[11] = time-course study of apoA-I infusion

T1 sequence (P41233 whole entry, the tested form may be a part): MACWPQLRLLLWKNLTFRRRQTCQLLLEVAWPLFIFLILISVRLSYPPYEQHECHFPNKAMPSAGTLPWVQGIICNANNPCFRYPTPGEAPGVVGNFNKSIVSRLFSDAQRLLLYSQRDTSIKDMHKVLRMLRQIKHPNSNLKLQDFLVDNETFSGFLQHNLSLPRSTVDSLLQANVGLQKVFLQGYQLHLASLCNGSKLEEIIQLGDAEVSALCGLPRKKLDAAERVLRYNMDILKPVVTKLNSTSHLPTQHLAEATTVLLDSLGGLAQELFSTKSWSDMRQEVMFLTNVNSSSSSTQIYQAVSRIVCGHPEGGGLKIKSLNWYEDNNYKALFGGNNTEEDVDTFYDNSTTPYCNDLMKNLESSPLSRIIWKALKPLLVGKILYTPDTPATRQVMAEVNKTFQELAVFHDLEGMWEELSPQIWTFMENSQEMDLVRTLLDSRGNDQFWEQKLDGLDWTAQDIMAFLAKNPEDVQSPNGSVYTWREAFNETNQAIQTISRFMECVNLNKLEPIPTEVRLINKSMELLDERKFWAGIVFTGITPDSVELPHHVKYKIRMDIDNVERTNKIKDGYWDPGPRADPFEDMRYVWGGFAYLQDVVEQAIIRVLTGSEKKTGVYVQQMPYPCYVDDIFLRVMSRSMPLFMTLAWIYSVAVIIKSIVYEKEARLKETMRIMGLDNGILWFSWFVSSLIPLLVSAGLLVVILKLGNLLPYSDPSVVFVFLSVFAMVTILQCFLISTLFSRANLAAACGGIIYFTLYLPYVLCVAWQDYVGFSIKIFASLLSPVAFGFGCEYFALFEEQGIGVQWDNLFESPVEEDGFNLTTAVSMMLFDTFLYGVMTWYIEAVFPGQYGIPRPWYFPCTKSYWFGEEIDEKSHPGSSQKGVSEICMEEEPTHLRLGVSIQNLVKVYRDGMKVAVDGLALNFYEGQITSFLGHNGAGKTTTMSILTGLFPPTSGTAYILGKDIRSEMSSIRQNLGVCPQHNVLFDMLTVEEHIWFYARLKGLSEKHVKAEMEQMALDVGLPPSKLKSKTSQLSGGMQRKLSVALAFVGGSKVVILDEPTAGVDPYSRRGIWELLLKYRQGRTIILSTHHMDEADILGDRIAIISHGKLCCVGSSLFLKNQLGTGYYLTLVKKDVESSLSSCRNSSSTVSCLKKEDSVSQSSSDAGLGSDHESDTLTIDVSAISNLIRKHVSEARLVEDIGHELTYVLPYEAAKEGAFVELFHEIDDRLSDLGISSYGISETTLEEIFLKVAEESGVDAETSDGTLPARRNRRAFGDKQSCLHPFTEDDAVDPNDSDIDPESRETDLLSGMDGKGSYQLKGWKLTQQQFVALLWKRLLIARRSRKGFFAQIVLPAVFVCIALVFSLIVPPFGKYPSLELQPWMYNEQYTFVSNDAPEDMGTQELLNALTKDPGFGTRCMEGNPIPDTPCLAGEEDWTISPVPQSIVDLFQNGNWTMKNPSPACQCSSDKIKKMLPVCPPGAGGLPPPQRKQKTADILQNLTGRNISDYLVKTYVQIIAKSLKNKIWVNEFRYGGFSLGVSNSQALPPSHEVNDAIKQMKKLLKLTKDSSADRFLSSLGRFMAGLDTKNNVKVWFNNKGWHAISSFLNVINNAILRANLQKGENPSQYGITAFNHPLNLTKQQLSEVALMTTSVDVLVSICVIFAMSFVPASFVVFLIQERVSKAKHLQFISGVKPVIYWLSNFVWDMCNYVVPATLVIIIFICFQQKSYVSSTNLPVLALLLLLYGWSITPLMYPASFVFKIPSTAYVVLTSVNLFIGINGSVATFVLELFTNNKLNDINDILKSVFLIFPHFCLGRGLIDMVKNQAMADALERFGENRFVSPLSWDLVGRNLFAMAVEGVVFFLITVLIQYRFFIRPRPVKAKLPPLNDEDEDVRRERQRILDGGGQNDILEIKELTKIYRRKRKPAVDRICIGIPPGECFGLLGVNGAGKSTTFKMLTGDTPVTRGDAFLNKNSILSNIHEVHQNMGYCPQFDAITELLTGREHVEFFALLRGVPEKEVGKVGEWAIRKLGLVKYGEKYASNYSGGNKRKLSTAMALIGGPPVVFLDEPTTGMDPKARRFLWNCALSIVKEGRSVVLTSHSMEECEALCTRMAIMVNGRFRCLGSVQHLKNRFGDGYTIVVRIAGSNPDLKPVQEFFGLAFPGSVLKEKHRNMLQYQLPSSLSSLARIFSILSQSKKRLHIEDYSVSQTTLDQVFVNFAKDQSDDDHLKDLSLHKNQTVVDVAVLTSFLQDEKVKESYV
T2 sequence (P41233 with tags, fused parts or gaps DEL1283-1306): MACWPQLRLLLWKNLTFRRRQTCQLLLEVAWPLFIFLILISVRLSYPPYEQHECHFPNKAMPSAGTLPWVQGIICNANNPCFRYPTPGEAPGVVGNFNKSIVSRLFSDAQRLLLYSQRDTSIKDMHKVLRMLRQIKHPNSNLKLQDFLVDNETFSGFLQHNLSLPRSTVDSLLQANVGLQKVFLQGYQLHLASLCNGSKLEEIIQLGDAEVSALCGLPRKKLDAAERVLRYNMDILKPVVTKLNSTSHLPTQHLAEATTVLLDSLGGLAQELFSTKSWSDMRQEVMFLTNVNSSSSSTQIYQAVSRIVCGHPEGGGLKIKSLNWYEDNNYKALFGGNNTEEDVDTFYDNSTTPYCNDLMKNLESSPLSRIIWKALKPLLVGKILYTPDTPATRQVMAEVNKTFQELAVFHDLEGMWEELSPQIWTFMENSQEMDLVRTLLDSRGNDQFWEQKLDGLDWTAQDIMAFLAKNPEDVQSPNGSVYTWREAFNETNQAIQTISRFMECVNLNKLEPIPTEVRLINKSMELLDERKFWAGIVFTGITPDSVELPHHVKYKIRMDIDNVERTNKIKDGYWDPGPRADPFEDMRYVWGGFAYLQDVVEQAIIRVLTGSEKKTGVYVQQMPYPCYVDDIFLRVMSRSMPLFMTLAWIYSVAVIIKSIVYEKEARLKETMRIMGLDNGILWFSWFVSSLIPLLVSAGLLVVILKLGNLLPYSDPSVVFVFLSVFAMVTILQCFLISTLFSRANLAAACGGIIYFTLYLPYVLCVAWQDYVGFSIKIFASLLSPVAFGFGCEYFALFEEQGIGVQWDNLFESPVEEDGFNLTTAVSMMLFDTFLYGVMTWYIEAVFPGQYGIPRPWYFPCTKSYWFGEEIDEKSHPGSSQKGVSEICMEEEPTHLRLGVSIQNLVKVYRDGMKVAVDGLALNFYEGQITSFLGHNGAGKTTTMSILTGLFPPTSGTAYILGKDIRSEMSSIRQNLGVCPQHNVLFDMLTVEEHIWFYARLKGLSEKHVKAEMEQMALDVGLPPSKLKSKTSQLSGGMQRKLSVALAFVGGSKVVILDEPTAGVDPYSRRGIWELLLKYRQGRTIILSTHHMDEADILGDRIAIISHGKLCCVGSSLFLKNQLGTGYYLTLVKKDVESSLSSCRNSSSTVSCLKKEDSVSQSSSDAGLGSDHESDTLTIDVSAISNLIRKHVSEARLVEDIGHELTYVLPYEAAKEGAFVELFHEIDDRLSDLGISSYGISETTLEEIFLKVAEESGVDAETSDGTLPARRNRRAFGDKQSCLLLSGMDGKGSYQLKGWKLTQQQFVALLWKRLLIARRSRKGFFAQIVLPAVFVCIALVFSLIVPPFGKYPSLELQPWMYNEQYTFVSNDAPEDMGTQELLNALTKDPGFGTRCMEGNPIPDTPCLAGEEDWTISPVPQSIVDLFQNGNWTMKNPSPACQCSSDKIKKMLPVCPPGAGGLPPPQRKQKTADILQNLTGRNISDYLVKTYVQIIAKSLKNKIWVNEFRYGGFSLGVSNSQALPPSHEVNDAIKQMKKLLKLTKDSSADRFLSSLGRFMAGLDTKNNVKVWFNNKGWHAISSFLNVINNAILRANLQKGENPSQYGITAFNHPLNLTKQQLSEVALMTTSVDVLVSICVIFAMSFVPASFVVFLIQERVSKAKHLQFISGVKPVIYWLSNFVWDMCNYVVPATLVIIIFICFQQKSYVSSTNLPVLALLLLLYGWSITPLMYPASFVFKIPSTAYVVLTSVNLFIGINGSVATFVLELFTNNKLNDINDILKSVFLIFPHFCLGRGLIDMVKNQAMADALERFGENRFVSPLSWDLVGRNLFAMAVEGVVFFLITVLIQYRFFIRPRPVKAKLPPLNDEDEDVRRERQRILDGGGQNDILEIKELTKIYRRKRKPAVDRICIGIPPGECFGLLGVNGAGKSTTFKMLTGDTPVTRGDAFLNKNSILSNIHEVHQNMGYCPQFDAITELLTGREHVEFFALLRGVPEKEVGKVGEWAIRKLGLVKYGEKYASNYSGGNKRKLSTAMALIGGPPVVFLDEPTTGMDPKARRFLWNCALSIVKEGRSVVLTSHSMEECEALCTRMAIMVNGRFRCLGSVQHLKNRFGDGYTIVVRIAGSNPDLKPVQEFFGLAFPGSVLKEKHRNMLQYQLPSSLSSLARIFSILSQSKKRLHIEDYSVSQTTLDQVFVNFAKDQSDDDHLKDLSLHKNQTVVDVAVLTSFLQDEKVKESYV

For `O=c1cc(-c2ccc(O)cc2)oc2cc(O)cc(O)c12` [apigenin, reference compound], the “ABCA1 protein level, effect in words” value (ABCA1 protein [1]) was “increase” and the “phosphorylation of ABCA1” value (ABCA1 phosphorylation) was “decrease”.

With `CCCC[C@@H](C=O)NC(=O)[C@H](CC(C)C)NC(=O)OCc1ccccc1` [calpeptin] the “effect of calpeptin on ABCA1delPEST (PEST sequence deleted)” value (ABCA1 protein [2]; 293 cells, calpeptin 30 μg/ml for 3 hours) was “abolished”, the “mean increase in ABCA1 protein levels” value (ABCA1 protein [2]; 293 cells, calpeptin 30 μg/ml for 3 hours, p<0.001) was 3.84±0.32 fold and the “cell surface ABCA1, effect in words” value (ABCA1 protein [2]; calpeptin) was “marked increase”. The “ABCA1 protein level, effect in words” value (ABCA1 protein [1]) was “increased”, the “ABCA1 protein level, effect in words” value (ABCA1 protein [3]) was “increased” and the “ABCA1 mRNA” value (ABCA1 protein [4]) was “without any change”.

For `CC(=O)N[C@@H](CSC(=O)[C@]1([C@@H](O)C(C)C)NC(=O)[C@H](C)[C@@H]1O)C(=O)O` [lactacystin], the “accumulation of total and cell surface ubiquitinated ABCA1” value (ABCA1 protein [2]; [9]) was “increase in the accumulation”, the “increase in total ABCA1 levels” value (ABCA1 protein [2]; [9]) was 2.2 fold and the “increase in cell surface ABCA1 levels” value (ABCA1 protein [2]; 293 cells, lactacystin, data not shown) was 2.2 fold. For the same molecule, the ABCA1 level (ABCA1 protein [1]; acetyl-LDL-loaded, LXR/RXR-activated macrophages, data not shown) was “increased” and the ABCA1 level (ABCA1 [5]) was “increased”.

For `C=C1[C@@H](O)[C@@H]2O[C@]3(CC[C@H](/C=C/[C@@H](C)[C@@H]4CC(C)=C[C@@]5(O[C@H](C[C@@](C)(O)C(=O)O)CC[C@H]5O)O4)O3)CC[C@H]2O[C@@H]1[C@@H](O)C[C@H](C)[C@H]1O[C@@]2(CCCCO2)CC[C@H]1C` [okadaic acid], the “ability of apoA-I to increase ABCA1 protein levels” value (ABCA1 protein [1]; macrophages) was “abolished”.

With “apoA-I: Human apoA-I (BIODESIGN International), dialyzed against PBS; apolipoprotein ligand of ABCA1” the “cellular expression levels of ABCA1delPEST” value (ABCA1 protein [2]; [10]) was “no effect”, the “protein levels of Walker motif mutant ABCA1” value (ABCA1 protein [2]; [10]) was “no increase” and the “ABCA1 protein level, effect in words” value (ABCA1 protein [2]; 293 cells, wild type ABCA1, apoA-I 10 μg/ml 3 hours) was “rapid, marked increase”. The “level of ABCA1-W590S mutant” value (ABCA1 protein [2]; mutant binds apoA-I but does not mediate lipid efflux, data not shown) was “fails to increase”, the “ubiquitination levels of ABCA1” value (ABCA1 protein [2]; with or without proteasome inhibitors, data not shown) was “did not decrease” and the “cell surface expression of ABCA1” value (ABCA1 protein [1]; macrophages, 3 hours apoA-I, biotinylation) was “increased”. For the same molecule, the “ABCA1 protein level, effect in words” value (ABCA1 protein [1]) was “rapid, marked increase”, the “effect on ABCA1 in primary macrophage cultures” value (ABCA1 protein [1]) was “stabilization” and the “ABCA1 protein level, effect in words” value (ABCA1 protein [3]) was “rapid, marked increase”. The “phosphorylation of ABCA1” value (ABCA1 phosphorylation) was “time- and dose-dependent reduction”, the “degradation of fluorescent calpain protease substrate” value (calpain protease) was “no change” and the “ABCA1 mRNA” value (ABCA1 protein [4]) was “did not change”. For the same molecule, the “ABCA1 protein in liver” value (ABCA1 [6]; mice, intravenous apoA-I 20 mg/kg, 4 hours, chow-fed) was “induction”, the “ABCA1 protein in peritoneal macrophages” value (ABCA1 [6]; mice, intravenous apoA-I, 4 hours, high-fat, high-cholesterol diet for 7 days) was “induction” and the “ABCA1 mRNA levels in liver” value (ABCA1 [6]; quantitative real-time PCR, data not shown) was “did not significantly alter”. The “ABCA1 protein levels after 24 hours” value (ABCA1 [6]; [11]) was “returned to base line”, the “time for which the increase in ABCA1 was sustained” value (ABCA1 [6]; [11]) was 8 h and the “ability of calpain to mediate proteolysis of ABCA1 after pre-treatment” value (ABCA1 [7]; apoA-I 10 μg/ml for 3 hours prior to permeabilization) was “abolished”.

For apoE: apoprotein ligand of ABCA1, the “effect on ABCA1 in primary macrophage cultures” value (ABCA1 protein [1]) was “stabilization”.

With methy-β-cyclodextrin the “ABCA1 protein level, effect in words” value (ABCA1 protein [1]) was “no effect”.

B1: μ-calpain: Purified μ-calpain protease from Calbiochem-Novabiochem (protein, UniProt P07384 2-714; P04632 1-268, looked up)
Calpain-1 catalytic subunit: SEEIITPVYCTGVSAQVQKQRARELGLGRHENAIKYLGQDYEQLRVRCLQSGTLFRDEAFPPVPQSLGYKDLGPNSSKTYGIKWKRPTELLSNPQFIVDGATRTDICQGALGDCWLLAAIASLTLNDTLLHRVVPHGQSFQNGYAGIFHFQLWQFGEWVDVVVDDLLPIKDGKLVFVHSAEGNEFWSALLEKAYAKVNGSYEALSGGSTSEGFEDFTGGVTEWYELRKAPSDLYQIILKALERGSLLGCSIDISSVLDMEAITFKKLVKGHAYSVTGAKQVNYRGQVVSLIRMRNPWGEVEWTGAWSDSSSEWNNVDPYERDQLRVKMEDGEFWMSFRDFMREFTRLEICNLTPDALKSRTIRKWNTTLYEGTWRRGSTAGGCRNYPATFWVNPQFKIRLDETDDPDDYGDRESGCSFVLALMQKHRRRERRFGRDMETIGFAVYEVPPELVGQPAVHLKRDFFLANASRARSEQFINLREVSTRFRLPPGEYVVVPSTFEPNKEGDFVLRFFSEKSAGTVELDDQIQANLPDEQVLSEEEIDENFKALFRQLAGEDMEISVKELRTILNRIISKHKDLRTKGFSLESCRSMVNLMDRDGNGKLGLVEFNILWNRIRNYLSIFRKFDLDKSGSMSAYEMRMAIESAGFKLNKKLYELIITRYSEPDLAVDFDNFVCCLVRLETMFRFFKTLDTDLDGVVTFDLFKWLQLTMFA
Calpain small subunit 1: MFLVNSFLKGGGGGGGGGGGLGGGLGNVLGGLISGAGGGGGGGGGGGGGGGGGGGGTAMRILGGVISAISEAAAQYNPEPPPPRTHYSNIEANESEEVRQFRRLFAQLAGDDMEVSATELMNILNKVVTRHPDLKTDGFGIDTCRSMVAVMDSDTTGKLGFEEFKYLWNNIKRWQAIYKQFDTDRSGTICSSELPGAFEAAGFHLNEHLYNMIIRRYSDESGNMDFDNFISCLVRLDAMFRAFKSLDKDGTGQIQVNIQEWLQLTMYS
With B1 the “degradation of ABCA1delPEST” value (ABCA1 [8]) was “no appreciable degradation” and the “degradation of wild type ABCA1” value (ABCA1 [7]; permeabilized 293 cells, purified μ-calpain) was “efficient degradation”.
